Measured values: US20090162351A1, “Transdiscal administration of inhibitors of p38 MAP kinase” (DePuy Spine, Inc., priority 2007, published 2009)
pEC50, pIC50: −log10 of the molar value. Where two headings read alike, the source gives them in different places.

Tests used:
Type in all cases: cell-based
[1] = tested on: IL-1β-stimulated PGE2 synthesis in bovine chondrocyte pellets / ARC tissues; assay: Chondrocyte pellet / ARC culture model: Prostaglandin E2 assay; settings: for PGE2 synthesis (in words): diacerein at 5.4 μM, rhein at 0.35 μM, 10 ng/ml IL-1β; for effect on IL-1β-stimulated PGE2 synthesis (in words): chondrocyte pellet / ARC model; for maximum inhibition of PGE2: bovine ARC tissues, IL-1β
Description: (§1) Calf articular cartilage was obtained from the knee joints of eight to twelve month old animals and was processed within twenty-four hours after sacrifice. After removal of muscle and ligament, the cartilage was kept moist using phosphate buffer solution (PBS) to prevent tissue dehydration, and was aseptically peeled off from subchondral bone with a scalpel, and the cartilage pieces were further minced into smaller pieces (˜0.3-0.5×˜0.2-0.5 cm cubes). […] Chondrocytes were then enzymatically isolated from the tissue by incubation for overnight at 37° C. with gentle agitation in 0.2% collagenase in Dulbecco's modified eagle media (DMEM). After removal of tissue debris by filtration through cell strainer and the residual collagenase by 3× wash in PBS, cells were finally resuspended at a density of 2.5×10^6 cells/ml in chondrocyte medium. A 1 ml aliquot of the cell suspension was dispensed into either a 15 ml Falcon centrifuge tube or a 96 deep-well plate and centrifuged at 2000×g for five minutes. The chondrocyte pellets were incubated at 37° C. in a humidified atmosphere of 5% CO2 for two to three weeks with a medium change every other day.
(§2) As an alternative to using calf articular cartilage, a commercial Aliginate Recovered Chondrocytes (ARC) system was also used (Articular Engineering, LLC (Northbrook, Ill.)). Use of the commercial system cut down on labor and time in producing chondrocyte pellet. This system produced cartilaginous tissue in vitro using bovine chondrocytes. The first step consisted of culturing chondrocytes in alginate under conditions optimal for the formation of a cell-associated matrix (CM). The second step allowed these cells with their CM, after recovery, to rapidly form and become integrated into a solid mass of cartilage on a porous insert within two weeks.
(§3) Chondrocyte pellets were washed once with 1 ml of Chondrocyte Stimulation Medium and equilibrated in the same medium at room temperature for fifteen to thirty minutes. Compounds were dissolved in H2O, Ethanol or dimethyl sulfoxide (DMSO) (10^−2 M) according to suppliers' instructions and further diluted with Chondrocyte Stimulation Medium to the required concentrations. DMSO concentrations in the culture media should not exceed 1%; this concentration of DMSO has no effect on cartilage proteoglycan metabolism in response to cytokines.
(§4) The pellets were first treated with compounds at desired concentrations at 37° C. for one hour and then incubated for three to five days in the absence or presence of 10 ng/ml of IL-1β. At the end of the incubation, media and pellets were harvested and frozen for further analysis. Pellets were also fixed as needed in 4% (w/v) paraformaldehyde in PBS for histology analysis.
Prostaglandin E2 (PGE2) was measured with a STAT-Prostaglandin E2 EIA ELISA kit (Cayman Biochemicals). This assay is based on the competition between PGE2 from 50 μl samples and a PGE2-alkaline phosphatase conjugate for a limited amount of PGE2 monoclonal antibody in a reaction volume of 150 μl at room temperature for one hour. The antibody-PGE2 complex bound to a goat polyclonal anti-mouse IgG that had been previously attached to the well. After washing to remove any unbound reagents, para-nitrophenyl phosphate (pNPP) was added to the well. The product of this enzymatic reaction absorbs strongly at 412 nm. Because of the large range in response to IL-1β and other cytokines, PGE2 values were converted to log scale prior to doing t-tests.
To characterize the relative efficacies among different p38 MAP kinase inhibitors, dose-response curves were generated for both PGE2 and NO assays. […] After one hour of treatment, ARCs were stimulated with or without 7.5 ng/ml IL-1β and continued to incubate for five days before assay. The IL-1β-stimulated PGE2 synthesis or NO production was first calculated by subtraction of PGE2/NO levels in the absence of IL-1β from that in the presence of IL-1β. […]

[2] = tested on: IL-1β-stimulated NO production in bovine chondrocyte pellets / ARC tissues; assay: Chondrocyte pellet / ARC culture model: total nitrite and nitrate assay; settings: for effect on IL-1β-stimulated NO production (in words): chondrocyte pellet / ARC model
Description: as §1, §2, §3, §4
Nitrate/Nitrite levels were measured using the Griess reaction (Green L. C. et al., “Analysis of Nitrate, Nitrite, and [15N]nitrate in Biological Fluids,” Anal. Biochem. 126: 131-138 (1982)) with a Nitrate/Nitrite Colorimetric Assay Kit (Cayman Chemicals), the contents of which are incorporated herein by reference. The assay involved a simple two-step process. The first step involved conversion of nitrate in 50 μl of culture medium to nitrite utilizing nitrate reductase in a reaction volume of 100 μl at room temperature for two hours. The second step involved the addition of 50 μl of both Griess Reagent 1 and 2, which converted nitrite into a deep purple azo compound in ten minutes. Photometric measurement of the absorbance at 540 or 550 nm due to this azo chromophore accurately determined nitrite concentration. This assay kit cannot be used for RPMI (Roswell Park Memorial Institute) derived tissue culture medium due to interference with the colorimetric reaction.
To characterize the relative efficacies among different p38 MAP kinase inhibitors, dose-response curves were generated for both PGE2 and NO assays. […] After one hour of treatment, ARCs were stimulated with or without 7.5 ng/ml IL-1β and continued to incubate for five days before assay. […]

chondrocytes = tested on: chondrocytes
Experimental: The LDH activity was determined calorimetrically in an enzymatic test based on the conversion of lactic acid to pyruvate in the presence of chromagenic substrate tetrazolium salt INT that was reduced to formazan.

[3] = tested on: TNFα in human whole blood; assay: TNFα inhibition, human whole blood assay (h-WBA / HWB)
[4] = Bos taurus, Chondrocyte, 120 h, bovine ARCs, 7.5 ng/ml IL-1β, five days, sigmoidal dose-response fit, read-out: PGE2, IC50
[5] = Bos taurus, Chondrocyte, Table 3B, read-out: PGE2 Inhibition, Pellet Assay, IC50
[6] = Bos taurus, Chondrocyte, 120 h, bovine ARCs, 7.5 ng/ml IL-1β, five days, sigmoidal dose-response fit, read-out: NO, IC50
[7] = chondrocyte pellet / ARC model, within the tested concentrations
[8] = Bos taurus, Chondrocyte, at 0.5 μM
[9] = bovine ARCs, 7.5 ng/ml IL-1β, five days, sigmoidal dose-response fit, read-out: PGE2, IC50
[10] = bovine ARCs, 7.5 ng/ml IL-1β, five days, sigmoidal dose-response fit, read-out: NO, IC50

CC(=O)Oc1cccc2c1C(=O)c1c(OC(C)=O)cc(C(=O)O)cc1C2=O [Diacerein, reference compound]
PGE2 synthesis (in words) ([1]; five days): no effect
NO production (in words) ([2]; diacerein at 5.4 μM, rhein at 0.35 μM, 10 ng/ml IL-1β, five days): significantly inhibited
cytotoxicity to chondrocytes, LDH (in words) (chondrocytes): cytotoxicity at higher concentrations

OCCC#Cc1nc(-c2ccc(F)cc2)c(-c2ccncc2)n1CCCc1ccccc1 [JNJ 3026582 (RWJ 67657), 4-[4-(4-fluorophenyl)-1-(3-phenylpropyl)-5-(4-pyridinyl)-1H-imidazol-2-yl]-3-butyn-1-ol]
pIC50 [1, 4]: 6.38
pIC50 [1, 5]: 6.38
effect on IL-1β-stimulated PGE2 synthesis (in words) [1]: inhibited
pIC50 [2, 6]: 6.92
pIC50 ([2]; Bos taurus, Chondrocyte, Table 3B, read-out: NO Inhibition, Pellet Assay, IC50): 6.92
effect on IL-1β-stimulated NO production (in words) [2]: inhibited
cytotoxicity to chondrocytes, LDH (in words) (chondrocytes; [7]): little cytoxicity

C[C@H](Nc1nccc(-c2c(-c3ccc(F)cc3)nc3nc(N)ccn23)n1)c1ccccc1 [JNJ 7583979 (RWJ 351958)]
inhibition at 0.5 µM [1, 8]: 100%
effect on IL-1β-stimulated PGE2 synthesis (in words) [1]: significantly inhibited
inhibition at 0.5 µM [2, 8]: 50%
effect on IL-1β-stimulated NO production (in words) [2]: significantly inhibited
cytotoxicity to chondrocytes, LDH (in words) (chondrocytes; [7]): little cytoxicity
pIC50 ([3]; Homo sapiens, read-out: inhibitor of TNF human whole blood (HWB), IC50): 8.30

CC(=O)N1CCN(c2c(-c3ccncc3)c(-c3ccc(F)cc3)c(C#N)n2C)CC1 [JNJ 17089540 (RWJ 669307)]
pIC50 ([1]; Table 3B, read-out: PGE2 Inhibition, Pellet Assay, IC50): 4.53
pIC50 [1, 9]: 4.53
pIC50 ([2]; Table 3B, read-out: NO Inhibition, Pellet Assay, IC50): 5.31
pIC50 [2, 10]: 5.31
effect on IL-1β-stimulated NO production (in words) [2]: weaker inhibitor
cytotoxicity to chondrocytes, LDH (in words) (chondrocytes): little cytoxicity

CO[C@H]1C[C@@H]2CC[C@@H](C)[C@@](O)(O2)C(=O)C(=O)N2CCCC[C@H]2C(=O)O[C@H]([C@H](C)C[C@@H]2CC[C@@H](O)[C@H](OC)C2)CC(=O)[C@H](C)/C=C(\C)[C@@H](O)[C@@H](OC)C(=O)[C@H](C)C[C@H](C)/C=C/C=C/C=C/1C [Rapamycin, reference compound]
inhibition at 10 µM ([1]; Bos taurus, Chondrocyte, at 10 μM): 47%
inhibition at 10 µM ([2]; Bos taurus, Chondrocyte): 30%
cytotoxicity to chondrocytes, LDH (in words) (chondrocytes): little toxicity

O=C(O)c1cc(O)c2c(c1)C(=O)c1cccc(O)c1C2=O [Rhein, reference compound]
PGE2 synthesis (in words) ([1]; five days): no effect
cytotoxicity to chondrocytes, LDH (in words) (chondrocytes): higher toxicity

C[C@@H]1CN(Cc2ccc(F)cc2)[C@@H](C)CN1C(=O)c1cc2cc(C(=O)C(=O)N(C)C)[nH]c2cc1Cl [SCIO-282 (SD 282)]
maximum inhibition of PGE2 [1]: 96%
pIC50 [1, 9]: 6.23
effect on IL-1β-stimulated PGE2 synthesis (in words) [1]: inhibited
pIC50 [2, 10]: 7.13
effect on IL-1β-stimulated NO production (in words) [2]: inhibited
cytotoxicity to chondrocytes, LDH (in words) (chondrocytes; [7]): little cytoxicity
pEC50 ([3]; 10× diluted, read-out: inhibits TNFα h-WBA (EC50)): 7.15

C[C@@H]1CN(Cc2ccc(F)cc2)[C@@H](C)CN1C(=O)c1cc2c(C(=O)C(=O)N(C)C)cn(C)c2cc1Cl [SCIO-469 (SD 469)]
pIC50 [1, 4]: 6.97
pIC50 [1, 5]: 7.74
maximum inhibition of PGE2 [1]: 62%
pIC50 [1, 9]: 6.97
pIC50 [2, 6]: 7.74
pIC50 ([2]; Bos taurus, Chondrocyte, Table 3B, unit inferred, read-out: NO Inhibition, Pellet Assay, IC50): 6.97
pIC50 [2, 10]: 7.74
increase of LDH level (chondrocytes; bovine, 100000 nM): 121%
pEC50 ([3]; Homo sapiens, 10× diluted, read-out: inhibits TNFα h-WBA (EC50)): 5.80
pEC50 ([3]; Homo sapiens, Table 2, read-out: TNFα Inhibition h-WBA (EC50)): 5.80

CC(C(=O)O)c1ccc(C(=O)c2cccs2)cc1 (centres unmarked) [Suprofen, reference compound]
pIC50 [1, 5]: 9.09
inhibition at 10 µM ([2]; Bos taurus, Chondrocyte): 20%

COc1ccc(-n2nc(CCC(=O)N(C)O)cc2-c2ccc(Cl)cc2)cc1 [Tepoxalin, reference compound]
pIC50 [1, 5]: 5.48
inhibition at 10 µM ([2]; Bos taurus, Chondrocyte): 50%

Cc1ccc(C(=O)c2ccc(CC(=O)O)n2C)cc1 [Tolmetin, reference compound]
pIC50 [1, 5]: 6.17
NO Inhibition, Pellet Assay (in words) ([2]; Table 3B): No effect
